Consider 5 compounds from the NIST ThermoML archive (doi:10.1021/acs.jced.7b00078).

± gives the expanded uncertainty stated by the source.

The conditions of the data set: Liquid; for mass density: 303.15 K, 101.33 kPa, Vibrating tube method; for vapor or sublimation pressure: Ebulliometric method (Recirculating still).

For `CSSC` [2,3-dithiabutane], the mass density was found to be 1051.14 ± 0.14 kg/m3. The “vapor or sublimation pressure” value (353.42 K) came out at 40 ± 0.13 kPa. Moreover, the “vapor or sublimation pressure” value (382.87 K) worked out at 101.33 ± 0.14 kPa.

On to `CCCCO` [butan-1-ol], for which the mass density is recorded as 801.92 ± 0.14 kg/m3. For the same compound, the “vapor or sublimation pressure” value (366.81 K) was determined as 40 ± 0.14 kPa. The “vapor or sublimation pressure” value (390.72 K) amounted to 101.33 ± 0.14 kPa.

Turning to `CCO` [ethanol], the mass density turned out to be 780.78 ± 0.15 kg/m3. In addition, the “vapor or sublimation pressure” value (329.63 K) worked out at 40 ± 0.15 kPa. Moreover, the “vapor or sublimation pressure” value (351.51 K) came to 101.33 ± 0.15 kPa.

`CO` [methanol]: the mass density was 781.81 ± 0.15 kg/m3. Moreover, the “vapor or sublimation pressure” value (315.8 K) was found to be 40 ± 0.15 kPa. In addition, under “337.97 K”, the “vapor or sublimation pressure” value is 101.33 ± 0.15 kPa.

On to `CCCO` [propan-1-ol], for which the mass density is 795.54 ± 0.15 kg/m3. Further, the “vapor or sublimation pressure” value (347.65 K) is given as 40 ± 0.15 kPa. Moreover, where the note is “370.23 K”, the “vapor or sublimation pressure” value came to 101.33 ± 0.15 kPa.

As a reminder, the mass density is the mass of a sample divided by its volume. What is called vapor or sublimation pressure is the pressure of vapour in equilibrium with the condensed phase.
